The text below walks through data of US11192907B2, “Aminopeptidase A inhibitors and pharmaceutical compositions comprising the same” (QUANTUM GENOMICS, priority 2018, dated 2021).

Where only a bound is given, the exact number is not on record here.

The test addresses T1, recombinant mouse APA (Mus musculus, UniProt P16406).
T1 sequence (P16406 1-945): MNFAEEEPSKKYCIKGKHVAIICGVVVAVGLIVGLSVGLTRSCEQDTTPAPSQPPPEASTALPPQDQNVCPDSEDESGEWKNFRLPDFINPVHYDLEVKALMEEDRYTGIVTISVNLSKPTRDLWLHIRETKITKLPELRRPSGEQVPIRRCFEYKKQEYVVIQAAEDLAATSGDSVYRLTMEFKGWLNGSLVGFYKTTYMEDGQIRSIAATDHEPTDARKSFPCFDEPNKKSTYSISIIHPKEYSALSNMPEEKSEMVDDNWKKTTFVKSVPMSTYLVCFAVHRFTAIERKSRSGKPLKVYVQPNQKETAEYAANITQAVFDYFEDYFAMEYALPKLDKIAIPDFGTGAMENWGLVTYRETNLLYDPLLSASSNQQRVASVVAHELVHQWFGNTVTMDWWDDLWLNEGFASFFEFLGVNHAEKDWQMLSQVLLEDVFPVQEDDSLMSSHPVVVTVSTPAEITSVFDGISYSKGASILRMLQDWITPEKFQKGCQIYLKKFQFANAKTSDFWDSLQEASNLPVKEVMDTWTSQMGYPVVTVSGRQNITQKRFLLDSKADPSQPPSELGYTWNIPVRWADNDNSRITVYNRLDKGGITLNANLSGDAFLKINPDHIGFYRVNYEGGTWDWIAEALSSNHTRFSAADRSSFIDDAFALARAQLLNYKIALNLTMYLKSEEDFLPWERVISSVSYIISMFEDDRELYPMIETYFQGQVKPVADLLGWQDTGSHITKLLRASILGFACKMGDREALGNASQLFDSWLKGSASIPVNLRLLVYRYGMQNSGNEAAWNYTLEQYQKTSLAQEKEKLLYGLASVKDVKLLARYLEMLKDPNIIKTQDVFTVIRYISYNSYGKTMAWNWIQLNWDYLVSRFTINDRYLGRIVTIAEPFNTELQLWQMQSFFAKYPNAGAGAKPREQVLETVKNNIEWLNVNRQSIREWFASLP
Kind of test: Measurement of APA activity in vitro (GluβNa hydrolysis, microplate). The class given is biochemical. The settings on record: 200 μM Glu-βNa, pH 7.4, 37° C., read-out: In vitro inhibition of aminopeptidase A, IC50 classification. The source says: In vitro, in the presence of calcium ions, APA hydrolyses a synthetic substrate α-L-glutamyl-β-naphthylamide (GluβNa) to glutamate and β-naphthylamine (βNa). A diazotation reaction in acidic medium makes it possible to reveal the β-naphthylamine by formation of a violet-coloured complex: spectrophotometric measurement then makes it possible to know the amount of complex formed and, by reference to a standard curve produced with increasing concentrations of β-naphthylamine, to deduce the enzymatic activity of the sample.
The reaction takes place at pH 7.4 in 50 mM tris-HCl buffer, in the presence of calcium (4 mM CaCl2)); recombinant mouse APA is incubated at 37° C. in the presence of the substrate (200 μM Glu-βNa) and in the presence or absence of various concentrations of the inhibitor to be tested, in a final volume of 100 μL. The reaction is stopped by adding 10 μL of 3N HCl. A standard curve of β-naphthylamine was prepared in parallel by diazotizing increasing concentrations (up to 0.2 mM) of 2-naphthylamine in 0.1 N HCl.
The following are added to each well: 25 μL of sodium nitrite (NaNO2) (mix, wait 5 minutes at room temperature), 50 μL of ammonium sulfamate (mix, wait 5 minutes at room temperature), then add 25 μL of N-(1-naphthyl) ethylenediamine dihydrochloride (mix, wait for stabilization of the violet colour for approximately 30 minutes at 37° C.).
The absorbance is then measured at 540 nm.
On to `NC(CCC(=O)O)P(=O)(O)Cc1ccccc1` (centres unmarked) [Example 1, 4-amino-4-[benzyl(hydroxy)phosphoryl]butanoic acid], for which the IC50 (usually the midpoint of a concentration-inhibition curve) is 30 to 300 nM.

In the case of `Cc1ccccc1CP(=O)(O)C(N)CCC(=O)O` (centres unmarked) [Example 2, 4-amino-4-{hydroxy[(2-methylphenyl)methyl]phosphoryl}butanoic acid], the IC50 was in the range of 30 to 300 nM.

For `Cc1cccc(CP(=O)(O)C(N)CCC(=O)O)c1` (centres unmarked) [Example 3, 4-amino-4-{hydroxy[(3-methylphenyl)methyl]phosphoryl}butanoic acid], the IC50 lay within 30 to 300 nM.

For `Cc1ccc(CP(=O)(O)C(N)CCC(=O)O)cc1` (centres unmarked) [Example 4, 4-amino-4-{hydroxy[(4-methylphenyl)methyl]phosphoryl}butanoic acid], the IC50 is 30 to 300 nM.

Turning to `NC(CCC(=O)O)P(=O)(O)Cc1cc(C(F)(F)F)cc(C(F)(F)F)c1` (centres unmarked) [Example 5, 4-amino-4-({[3,5-bis(trifluoromethyl)phenyl]methyl}(hydroxy)phosphoryl) butanoic acid], the IC50 was in the range of 300 to 10000 nM.

As to `NC(CCC(=O)O)P(=O)(O)Cc1ccccc1-c1ccccc1` (centres unmarked) [Example 6, 4-amino-4-[({[1,1′-biphenyl]-2-yl}methyl)(hydroxy)phosphoryl]butanoic acid], the IC50 was 300 to 10000 nM.

In the case of `NC(CCC(=O)O)P(=O)(O)Cc1cccc(OC(F)(F)F)c1` (centres unmarked) [Example 7, 4-amino-4-[hydroxy({[3-(trifluoromethoxy)phenyl]methyl})phosphoryl]butanoic acid], the IC50 was 30 to 300 nM.

On to `NC(CCC(=O)O)P(=O)(O)Cc1ccc(OC(F)(F)F)cc1` (centres unmarked) [Example 8, 4-amino-4-[hydroxy({[4-(trifluoromethoxy)phenyl]methyl})phosphoryl]butanoic acid], for which the IC50 lay in the range of 30 to 300 nM.

`CS(=O)(=O)c1ccc(CP(=O)(O)C(N)CCC(=O)O)cc1` (centres unmarked) [Example 9, 4-amino-4-{hydroxy[(4-methanesulfonylphenyl)methyl]phosphoryl}butanoic acid]: the IC50 is 300 to 10000 nM.

Turning to `COc1ccccc1CP(=O)(O)C(N)CCC(=O)O` (centres unmarked) [Example 10, 4-amino-4-{hydroxy[(2-methoxyphenyl)methyl]phosphoryl}butanoic acid], the IC50 is less than 30 nM.

Consider `COc1cccc(CP(=O)(O)C(N)CCC(=O)O)c1` (centres unmarked) [Example 11, 4-amino-4-{hydroxy[(3-methoxyphenyl)methyl]phosphoryl}butanoic acid], for which the IC50 is less than 30 nM.

For `COc1ccc(CP(=O)(O)C(N)CCC(=O)O)cc1` (centres unmarked) [Example 12, 4-amino-4-{hydroxy[(4-methoxyphenyl)methyl]phosphoryl}butanoic acid], the IC50 fell in the range of 30 to 300 nM.

With `N#Cc1cccc(CP(=O)(O)C(N)CCC(=O)O)c1` (centres unmarked) [Example 13, 4-amino-4-{[(3-cyanophenyl)methyl](hydroxy)phosphoryl}butanoic acid], the IC50 was in the range of 30 to 300 nM.

With `N#Cc1ccc(CP(=O)(O)C(N)CCC(=O)O)cc1` (centres unmarked) [Example 14, 4-amino-4-{[(4-cyanophenyl)methyl](hydroxy)phosphoryl}butanoic acid], the IC50 fell in the range of 30 to 300 nM.

On to `NC(CCC(=O)O)P(=O)(O)Cc1cccc2ccccc12` (centres unmarked) [Example 15, 4-amino-4-{hydroxy[(naphthalen-1-yl)methyl]phosphoryl}butanoic acid], for which the IC50 was less than 30 nM.

Consider `NC(CCC(=O)O)P(=O)(O)Cc1ccccc1Oc1ccccc1` (centres unmarked) [Example 16, 4-amino-4-{hydroxy[(2-phenoxyphenyl)methyl]phosphoryl}butanoic acid], for which the IC50 lay in the range of 30 to 300 nM.

`NC(CCC(=O)O)P(=O)(O)Cc1cccc(Oc2ccccc2)c1` (centres unmarked) [Example 17, 4-amino-4-{hydroxy[(3-phenoxyphenyl)methyl]phosphoryl}butanoic acid]: the IC50 is 30 to 300 nM.

Take `NC(CCC(=O)O)P(=O)(O)Cc1ccc(Oc2ccccc2)cc1` (centres unmarked) [Example 18, 4-amino-4-{hydroxy[(4-phenoxyphenyl)methyl]phosphoryl}butanoic acid]: the IC50 fell in the range of 30 to 300 nM.

As to `NC(CCC(=O)O)P(=O)(O)Cc1cccc(-c2ccccc2)c1` (centres unmarked) [Example 19, 4-amino-4-[({[1,1′-biphenyl]-3-yl}methyl)(hydroxy)phosphoryl]butanoic acid], the IC50 lay within 30 to 300 nM.

As to `NC(CCC(=O)O)P(=O)(O)Cc1cc(-c2ccccc2)no1` (centres unmarked) [Example 20, 4-amino-4-{hydroxy[(3-phenyl-1,2-oxazol-5-yl)methyl]phosphoryl}butanoic acid], the IC50 was in the range of 300 to 10000 nM.

In the case of `NC(CCC(=O)O)P(=O)(O)Cc1cc(-c2ccccc2)on1` (centres unmarked) [Example 21, 4-amino-4-{hydroxy[(5-phenyl-1,2-oxazol-3-yl)methyl]phosphoryl}butanoic acid], the IC50 was in the range of 30 to 300 nM.

As to `Cc1ccccc1CCP(=O)(O)C(N)CCC(=O)O` (centres unmarked) [Example 23, 4-amino-4-{hydroxy[2-(2-methylphenyl)ethyl]phosphoryl}butanoic acid], the IC50 was less than 30 nM.

Take `Cc1cccc(CCP(=O)(O)C(N)CCC(=O)O)c1` (centres unmarked) [Example 24, 4-amino-4-{hydroxy[2-(3-methylphenyl)ethyl]phosphoryl}butanoic acid]: the IC50 is less than 30 nM.

As for `Cc1ccc(CCP(=O)(O)C(N)CCC(=O)O)cc1` (centres unmarked) [Example 25, 4-amino-4-{hydroxy[2-(4-methylphenyl)ethyl]phosphoryl}butanoic acid], the IC50 was less than 30 nM.

For the molecule `NC(CCC(=O)O)P(=O)(O)CCc1cccc(C(F)(F)F)c1` (centres unmarked) [Example 26, 4-amino-4-[hydroxy({2-[3-(trifluoromethyl)phenyl]ethyl})phosphoryl]butanoic acid], the IC50 fell in the range of 30 to 300 nM.

Consider `CC(C)(CP(=O)(O)C(N)CCC(=O)O)c1ccccc1` (centres unmarked) [Example 27, 4-amino-4-[hydroxy(2-methyl-2-phenylpropyl)phosphoryl]butanoic acid], for which the IC50 lay within 300 to 10000 nM.

Regarding `NC(CCC(=O)O)P(=O)(O)CCc1ccccc1Cl` (centres unmarked) [Example 28, 4-amino-4-{[2-(2-chlorophenyl)ethyl](hydroxy)phosphoryl}butanoic acid], the IC50 was less than 30 nM.

Take `NC(CCC(=O)O)P(=O)(O)CCc1cccc(Cl)c1` (centres unmarked) [Example 29, 4-amino-4-{[2-(3-chlorophenyl)ethyl](hydroxy)phosphoryl}butanoic acid]: the IC50 is 30 to 300 nM.

Turning to `NC(CCC(=O)O)P(=O)(O)CCc1ccc2ccccc2c1` (centres unmarked) [Example 30, 4-amino-4-{hydroxy[2-(naphthalen-2-yl)ethyl]phosphoryl}butanoic acid], the IC50 was less than 30 nM.

As to `NC(CCC(=O)O)P(=O)(O)CCc1cccc2ccccc12` (centres unmarked) [Example 31, 4-amino-4-{hydroxy[2-(naphthalen-1-yl)ethyl]phosphoryl}butanoic acid], the IC50 is less than 30 nM.

Regarding `COc1ccccc1CCP(=O)(O)C(N)CCC(=O)O` (centres unmarked) [Example 32, 4-amino-4-{hydroxy[2-(2-methoxyphenyl)ethyl]phosphoryl}butanoic acid], the IC50 is less than 30 nM.

On to `COc1cccc(CCP(=O)(O)C(N)CCC(=O)O)c1` (centres unmarked) [Example 33, 4-amino-4-{hydroxy[2-(3-methoxyphenyl)ethyl]phosphoryl} butanoic acid], for which the IC50 is less than 30 nM.

Take `COc1ccc(CCP(=O)(O)C(N)CCC(=O)O)cc1` (centres unmarked) [Example 34, 4-amino-4-{hydroxy[2-(4-methoxyphenyl)ethyl]phosphoryl}butanoic acid]: the IC50 is less than 30 nM.

Turning to `NC(CCC(=O)O)P(=O)(O)CCc1ccccc1Oc1ccccc1` (centres unmarked) [Example 35, 4-amino-4-{hydroxy[2-(2-phenoxyphenyl)ethyl]phosphoryl}butanoic acid], the IC50 was less than 30 nM.

In the case of `NC(CCC(=O)O)P(=O)(O)CCc1ccccc1OC1CCCC1` (centres unmarked) [Example 36, 4-amino-4-({2-[2-(cyclopentyloxy)phenyl]ethyl}(hydroxy)phosphoryl) butanoic acid], the IC50 was less than 30 nM.
